Experimental data reported in patent publication US20150274661A1, “INDOL-AMIDE COMPOUNDS AS BETA-AMYLOID INHBITORS” (Hoffmann-La Roche Inc., priority 2012, published 2015).

System: Aβ42 secretion
Assay: Cellular γ-secretase assay (inhibition of Aβ42 secretion)
Assay type: cell-based
Details: human neuroglioma H4 cells overexpressing human APP, 22 hours incubation
Experimental: Cellular γ-Secretase Assay
The compounds were investigated in accordance with the test given hereinafter.
Human neuroglioma H4 cells overexpressing human APP were plated at 30,000 cells/well/200 μL in 96-well plates in IMDM media containing 10% FCS, […] Hygromycin B and incubated for 2 hours at 37° C., 5% CO2 prior to adding test compounds.
Compounds for testing were dissolved in 100% Me2SO yielding in a 10 mM stock solution. Typically 12 μL of these solutions were further diluted in 1000 μL of IMDM media (w/o FCS). Subsequent 1:1 dilutions gave a ten point dose response curve. 100 μL of each dilution was added to the cells in 96-well plates. Appropriate controls using vehicle only and reference compound were applied to this assay. The final concentration of Me2SO was 0.4%.
After incubation for 22 hours at 37° C., 5% CO2, 50 μL supernatant was transferred into round-bottom 96-well polypropylene plates for detection of Aβ42. 50 μL assay buffer (50 mM Tris/Cl, pH 7.4, 60 mM NaCl, 0.5% BSA, 1% TWEEN 20) was added to the wells followed by the addition of 100 μL of detection antibody (ruthenylated BAP15 0.0625 μg/mL in assay buffer). 50 μL of a premix of capture antibody (biotinylated 6E10 antibody, 1 μg/mL) and Streptavidin-coated magnetic beads (Dynal M-280, 0.125 mg/mL) were preincubated for 1 hour at room temperature before adding the assay plates. Assay plates were incubated on a shaker for 3 hours at room temperature and finally read in the Bioveris M8 Analyser according to the manufacturer's instructions (Bioveris).
IC50 values for inhibition of Aβ42 secretion were calculated by nonlinear regression fit analysis using XLfit 4.0 software (IDBS).

SMILES	EC50 (Homo sapiens, 22 h) [nM]	EC50 [nM]
N#CCN1CCC(c2ccc3[nH]c(C(=O)Nc4cccc(F)c4)cc3c2)C1 (stereo not shown) [Example 16, 5-(1-(Cyanomethyl)pyrrolidin-3-yl)-N-(3-fluorophenyl)-1H-indole-2-carboxamide]	373	
CC(C)N1CCN(c2ccc3[nH]c(C(=O)Nc4ccc(F)c(F)c4)cc3c2)CC1 [Example 63, 5-(4-Isopropyl-piperazin-1-yl)-1H-indole-2-carboxylic acid (3,4-difluoro-phenyl)-amide]	614	
O=C(Nc1ccc(F)c(F)c1)c1cc2cc(C(O)CN3CCCCC3)ccc2[nH]1 (stereo not shown) [Example 100, 5-(1-Hydroxy-2-piperidin-1-yl-ethyl)-1H-indole-2-carboxylic acid (3,4-difluoro-phenyl)-amide]	2610	
CC(C)S(=O)(=O)N1CCCC(c2ccc3[nH]c(C(=O)Nc4cc(F)cc(F)c4)cc3c2)C1 (stereo not shown) [Example 50, 5-[1-(Propane-2-sulfonyl)-piperidin-3-yl]-1H-indole-2-carboxylic acid (3,5-difluoro-phenyl)-amide]	202	
N#Cc1cc(F)cc(NC(=O)c2cc3cc(C4CCNC4)ccc3[nH]2)c1 (stereo not shown) [Example 9, N-(3-Cyano-5-fluorophenyl)-5-(pyrrolidin-3-yl)-1H-indole-2-carboxamide]	1270	
COCC(=O)N1CCCC(c2ccc3[nH]c(C(=O)Nc4cc(F)cc(F)c4)cc3c2)C1 (stereo not shown) [Example 57, 5-[1-(2-Methoxy-acetyl)-piperidin-3-yl]-1H-indole-2-carboxylic acid (3,5-difluoro-phenyl)-amide]	668	
O=C(Nc1cc(F)cc(F)c1)c1cc2cc(C3CCNC3)ccc2[nH]1 (stereo not shown) [Example 7, 5-Pyrrolidin-3-yl-1H-indole-2-carboxylic acid (3,5-difluoro-phenyl)-amide]	253	
CC(C)N1CCC(c2ccc3[nH]c(C(=O)Nc4ccc(F)c(F)c4)cc3c2)CC1 [Example 28, 5-(1-Isopropyl-piperidin-4-yl)-1H-indole-2-carboxylic acid (3,4-difluoro-phenyl)-amide]	852	
O=C(Nc1ccc(F)c(F)c1)c1cc2cc(C3CCCOC3)ccc2[nH]1 (stereo not shown) [Example 86, 5-(Tetrahydro-pyran-3-yl)-1H-indole-2-carboxylic acid (3,4-difluoro-phenyl)-amide]	990	
CC(c1ccc2[nH]c(C(=O)Nc3cc(F)cc(F)c3)cc2c1)N1CCCC1 (stereo not shown) [Example 90, 5-(1-Pyrrolidin-1-yl-ethyl)-1H-indole-2-carboxylic acid (3,5-difluoro-phenyl)-amide]	877	
CC(=O)N1CCCC(c2ccc3[nH]c(C(=O)Nc4cc(F)cc(F)c4)cc3c2)C1 (stereo not shown) [Example 52, 5-(1-Acetyl-piperidin-3-yl)-1H-indole-2-carboxylic acid (3,5-difluoro-phenyl)-amide]	273	
CCC(=O)N1CCC(c2ccc3[nH]c(C(=O)Nc4ccc(F)cc4)cc3c2)CC1 [Example 44, 5-(1-Propionyl-piperidin-4-yl)-1H-indole-2-carboxylic acid (4-fluoro-phenyl)-amide]	4380	
O=C(Nc1cccc(F)c1)c1cc2cc(C3CCCN(CCO)C3)ccc2[nH]1 (stereo not shown) [Example 67, N-(3-Fluorophenyl)-5-(1-(2-hydroxyethyl)piperidin-3-yl)-1H-indole-2-carboxamide]	657	
CC(C)N1CCC[C@@H](c2ccc3[nH]c(C(=O)Nc4cccc(F)c4)cc3c2)C1 [Example 111, 5-((S)-1-Isopropyl-piperidin-3-yl)-1H-indole-2-carboxylic acid (3-fluoro-phenyl)-amide]	876	
CC(C)N1CC=C(c2ccc3[nH]c(C(=O)Nc4cc(F)cc(F)c4)cc3c2)CC1 [Example 87, 5-(1-Isopropyl-1,2,3,6-tetrahydro-pyridin-4-yl)-1H-indole-2-carboxylic acid (3,5-difluoro-phenyl)-amide]	1300	
O=C(Nc1cc(F)cc(F)c1)c1cc2cc(C3CCCN(S(=O)(=O)c4ccccc4)C3)ccc2[nH]1 (stereo not shown) [Example 53, 5-(1-Benzenesulfonyl-piperidin-3-yl)-1H-indole-2-carboxylic acid (3,5-difluoro-phenyl)-amide]	392	
CC(C)N1CCC(c2ccc3[nH]c(C(=O)Nc4cccc(F)c4)cc3c2)CC1 [Example 20, 5-(1-Isopropyl-piperidin-4-yl)-1H-indole-2-carboxylic acid (3-fluoro-phenyl)-amide]	832	

SMILES	EC50 (Homo sapiens, 22 h) [nM]	EC50 [nM]
CN1CCC(c2ccc3[nH]c(C(=O)Nc4cc(F)cc(F)c4)cc3c2)C1 (stereo not shown) [Example 2, 5-(1-Methyl-pyrrolidin-3-yl)-1H-indole-2-carboxylic acid (3,5-difluoro-phenyl)-amide]		178
O=C(Nc1ccc(F)cc1)c1cc2cc(C3CCN(CCc4ccccc4)CC3)ccc2[nH]1 [Example 45, 5-(1-Phenethyl-piperidin-4-yl)-1H-indole-2-carboxylic acid (4-fluoro-phenyl)-amide]	12900	
O=C(Nc1cc(F)cc(F)c1)c1cc2cc(C3CCN(CC(F)(F)F)C3)ccc2[nH]1 (stereo not shown) [Example 10, 5-[1-(2,2,2-Trifluoro-ethyl)-pyrrolidin-3-yl]-1H-indole-2-carboxylic acid (3,5-difluoro-phenyl)-amide]	3830	
O=C(Nc1cc(F)cc(F)c1)c1cc2cc(C3CCCN(S(=O)(=O)C4CC4)C3)ccc2[nH]1 (stereo not shown) [Example 56, 5-(1-Cyclopropanesulfonyl-piperidin-3-yl)-1H-indole-2-carboxylic acid (3,5-difluoro-phenyl)-amide]	466	
CCC1(c2ccc3[nH]c(C(=O)Nc4cc(F)cc(F)c4)cc3c2)CCC(=O)NC1=O (stereo not shown) [Example 19, 5-(3-Ethyl-2,6-dioxo-piperidin-3-yl)-1H-indole-2-carboxylic acid (3,5-difluoro-phenyl)-amide]	2630	
CC(C)OC(=O)N1CCC(c2ccc3[nH]c(C(=O)Nc4cncc(F)c4)cc3c2)C1 (stereo not shown) [Example 77, isopropyl 3-(2-(5-fluoropyridin-3-ylcarbamoyl)-1H-indol-5-yl)pyrrolidine-1-carboxylate]	3760	
CC(CCN1CCCCC1)c1ccc2[nH]c(C(=O)Nc3cc(F)cc(F)c3)cc2c1 (stereo not shown) [Example 98, N-(3,5-Difluorophenyl)-5-(4-(piperidin-1-yl)butan-2-yl)-1H-indole-2-carboxamide]	1040	
CC(C)N1CCC(c2ccc3[nH]c(C(=O)Nc4cccc(Cl)c4)cc3c2)CC1 [Example 23, 5-(1-Isopropyl-piperidin-4-yl)-1H-indole-2-carboxylic acid (3-chloro-phenyl)-amide]	897	
O=C(Nc1cc(F)cc(F)c1)c1cc2cc(C3CCCN(C(=O)C4CC4)C3)ccc2[nH]1 (stereo not shown) [Example 54, 5-(1-Cyclopropanecarbonyl-piperidin-3-yl)-1H-indole-2-carboxylic acid (3,5-difluoro-phenyl)-amide]	403	
CC(C)C(=O)N1CCC(c2ccc3[nH]c(C(=O)Nc4cc(F)cc(F)c4)cc3c2)C1 (stereo not shown) [Example 13, 5-(1-Isobutyryl-pyrrolidin-3-yl)-1H-indole-2-carboxylic acid (3,5-difluoro-phenyl)-amide]	713	
O=C(Nc1ccc(F)cc1)c1cc2cc(C3CCN(Cc4ccccc4)CC3)ccc2[nH]1 [Example 38, 5-(1-Benzyl-piperidin-4-yl)-1H-indole-2-carboxylic acid (4-fluoro-phenyl)-amide]	1290	
CC(C)C(=O)N1CCCC(c2ccc3[nH]c(C(=O)Nc4cc(F)cc(F)c4)cc3c2)C1 (stereo not shown) [Example 51, 5-(1-Isobutyryl-piperidin-3-yl)-1H-indole-2-carboxylic acid (3,5-difluoro-phenyl)-amide]	263	
O=C(Nc1cccc(F)c1)c1cc2cc(C3CCCN(CC4CC4)C3)ccc2[nH]1 (stereo not shown) [Example 71, 5-(1-(Cyclopropylmethyl)piperidin-3-yl)-N-(3-fluorophenyl)-1H-indole-2-carboxamide]	977	
CC(=O)N1CCC[C@H](c2ccc3[nH]c(C(=O)Nc4cc(F)cc(F)c4)cc3c2)C1 [Example 112, 5-((R)-1-Acetyl-piperidin-3-yl)-1H-indole-2-carboxylic acid (3,5-difluoro-phenyl)-amide]	226	
O=C(Nc1cncc(F)c1)c1cc2cc(C3CCN(S(=O)(=O)c4ccc(F)cc4)C3)ccc2[nH]1 (stereo not shown) [Example 84, 5-(1-(4-Fluorophenylsulfonyl)pyrrolidin-3-yl)-N-(5-fluoropyridin-3-yl)-1H-indole-2-carboxamide]	4860	
CC(=O)N1CCC[C@@H](c2ccc3[nH]c(C(=O)Nc4cc(F)cc(F)c4)cc3c2)C1 [Example 113, 5-((S)-1-Acetyl-piperidin-3-yl)-1H-indole-2-carboxylic acid (3,5-difluoro-phenyl)-amide]	1790	
CC(c1ccc2[nH]c(C(=O)Nc3cc(F)cc(F)c3)cc2c1)N1CCCC1=O (stereo not shown) [Example 88, 5-[1-(2-Oxo-pyrrolidin-1-yl)-ethyl]-1H-indole-2-carboxylic acid (3,5-difluoro-phenyl)-amide]	321	
